Experimental data from patent US10981917B2, “Heterocyclic compound, its preparation method, and pharmaceutical composition comprising the same” (Daewoong Pharmaceutical Co., Ltd., priority 2017, dated 2021).
pIC50: −log10 of the molar value.

biological target: PRS (prolyl-tRNA synthetase) protein, PRS portion of EPRS (Homo sapiens (Human), UniProt P07814); experiment: PRS enzyme activity inhibition experiment ([3H]proline, liquid scintillation); format: biochemical; conditions: purified PRS protein, 37° C. for 5 to 10 minutes
Sequence (P07814 1007-1512): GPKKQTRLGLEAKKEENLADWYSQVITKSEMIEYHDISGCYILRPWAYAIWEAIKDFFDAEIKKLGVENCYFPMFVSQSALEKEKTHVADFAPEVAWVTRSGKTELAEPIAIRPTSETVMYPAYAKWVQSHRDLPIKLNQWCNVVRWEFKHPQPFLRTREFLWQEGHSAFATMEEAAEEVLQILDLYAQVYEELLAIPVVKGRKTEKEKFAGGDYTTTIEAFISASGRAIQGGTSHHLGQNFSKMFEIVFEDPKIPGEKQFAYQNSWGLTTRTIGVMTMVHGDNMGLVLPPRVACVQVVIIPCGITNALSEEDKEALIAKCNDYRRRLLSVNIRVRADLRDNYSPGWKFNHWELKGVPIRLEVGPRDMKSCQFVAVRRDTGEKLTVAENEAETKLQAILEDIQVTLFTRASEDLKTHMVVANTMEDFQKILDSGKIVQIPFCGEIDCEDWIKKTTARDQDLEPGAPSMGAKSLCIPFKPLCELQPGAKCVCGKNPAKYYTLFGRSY
How it was run: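 Values are % inhibition or IC50 ranges (A ≤100 nM, B 100–500 nM, C ≥500 nM) from [3H]proline incorporation measured by liquid scintillation. PRS portion of human EPRS, reacted 5–10 min at 37 °C in pH 7.4 phosphate buffer containing 5 mM ATP and tRNA, compound at 1 μM.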

SMILES	pIC50
O[C@H]1CCCN[C@@H]1CCCn1cnc2cc(Cl)cc(-c3cnn(C(F)F)c3)c21 [Example 89, (2R,3S)-2-(3-(5-chloro-7-(1-(difluoromethyl)-1H-pyrazol-4-yl)-1H-benzo[d]imidazol-1-yl)propyl)piperidin-3-ol]	≥ 7.00
COC(=O)c1cn(CCC[C@H]2NCCC[C@@H]2O)c2c(Cl)cccc12 [Example 154, methyl 7-chloro-1-(3-((2R,3S)-3-hydroxypiperidin-2-yl)propyl)-1H-indole-3-carboxylate]	6.30 to 7.00
O[C@H]1CCCN[C@@H]1/C=C/Cn1ccc2ccc(Cl)cc21 [Example 197, (2R,3S)-2-((E)-3-(6-chloro-1H-indol-1-yl)prop-1-en-1-yl)piperidin-3-ol]	≤ 6.30
Cc1ccc2c(c1)ncn2CCC[C@H]1NCCC[C@@H]1O [Example 14, (2R,3S)-2-(3-(5-methyl-1H-benzo[d]imidazol-1-yl)propyl)piperidin-3-ol]	≤ 6.30
O[C@H]1CCCN[C@@H]1/C=C/Cn1cnc2cc(Cl)cc(F)c21 [Example 183, (2R,3S)-2-((E)-3-(5-chloro-7-fluoro-1H-benzo[d]imidazol-1-yl)prop-1-en-1-yl)piperidin-3-ol]	6.30 to 7.00
O[C@H]1CCCN[C@@H]1CCCn1cnc2c(F)ccc(Cl)c21 [Example 74, (2R,3S)-2-(3-(7-chloro-4-fluoro-1H-benzo[d]imidazol-1-yl)propyl)piperidin-3-ol]	6.30 to 7.00
O[C@H]1CCCN[C@@H]1CCCn1cnc2cc(Cl)c(F)cc21 [Example 34, (2R,3S)-2-(3-(5-chloro-6-fluoro-1H-benzo[d]imidazol-1-yl)propyl)piperidin-3-ol]	6.30 to 7.00
C/C(=C\[C@H]1NCCC[C@@H]1O)Cn1c(CO)nc2cc(Cl)c(Cl)cc21 [Example 224, (2R,3S)-2-((E)-3-(5,6-dichloro-2-(hydroxymethyl)-1H-benzo[d]imidazol-1-yl)-2-methylprop-1-en-1-yl)piperidin-3-ol]	≤ 6.30
OCc1nc2cc(Cl)c(Cl)cc2n1CCC[C@H]1NCCC[C@@H]1O [Example 147, (2R,3S)-2-(3-(5,6-dichloro-2-(hydroxymethyl)-1H-benzo[d]imidazol-1-yl)propyl)piperidin-3-ol]	≤ 6.30
Cc1cc2ncn(CCC[C@H]3NCCC[C@@H]3O)c2cc1C [Example 55, (2R,3S)-2-(3-(5,6-dimethyl-1H-benzo[d]imidazol-1-yl)propyl)piperidin-3-ol]	≤ 6.30
O=[N+]([O-])c1c(Br)ccc2c1ncn2CCC[C@H]1NCCC[C@@H]1O [Example 75, (2R,3S)-2-(3-(5-bromo-4-nitro-1H-benzo[d]imidazol-1-yl)propyl)piperidin-3-ol]	≤ 6.30
Cn1c(=O)[nH]c2c(ncn2CCC[C@H]2NCCC[C@@H]2O)c1=O [Example 164, 9-(3-((2R,3S)-3-hydroxypiperidin-2-yl)propyl)-1-methyl-1H-purine-2,6(3H,9H)-dione]	≤ 6.30
O[C@H]1CCCN[C@@H]1/C=C/Cn1ccc2c(Cl)ncnc21 [Example 199, (2R,3S)-2-((E)-3-(4-chloro-7H-pyrrolo[2,3-d]pyrimidin-7-yl)prop-1-en-1-yl)piperidin-3-ol]	≤ 6.30
OCc1nc2ccccc2n1CCC[C@H]1NCCC[C@@H]1O [Example 145, (2R,3S)-2-(3-(2-(hydroxymethyl)-1H-benzo[d]imidazol-1-yl)propyl)piperidin-3-ol]	≤ 6.30
O[C@H]1CCCN[C@@H]1CCCn1cnc2c(N3CCOCC3)ncnc21 [Example 140, (2R,3S)-2-(3-(6-morpholino-9H-purin-9-yl)propyl)piperidin-3-ol]	≤ 6.30
O[C@H]1CCCN[C@@H]1CCCn1cnc2c(F)c(Br)ccc21 [Example 47, (2R,3S)-2-(3-(5-bromo-4-fluoro-1H-benzo[d]imidazol-1-yl)propyl)piperidin-3-ol]	6.30 to 7.00
O[C@H]1CCCN[C@@H]1CCCn1cnc2c(Cl)c(F)ccc21 [Example 62, (2R,3S)-2-(3-(4-chloro-5-fluoro-1H-benzo[d]imidazol-1-yl)propyl)piperidin-3-ol]	6.30 to 7.00
O[C@H]1CCCN[C@@H]1CCCn1cnc2nc(Br)ccc21 [Example 119, (2R,3S)-2-(3-(5-bromo-1H-imidazo[4,5-b]pyridin-1-yl)propyl)piperidin-3-ol]	≤ 6.30
O[C@H]1CCCN[C@@H]1CCCn1cnc2cc(Br)ncc21 [Example 125, (2R,3S)-2-(3-(6-bromo-3H-imidazo[4,5-c]pyridin-3-yl)propyl)piperidin-3-ol]	≤ 6.30
CCCCn1cc(-c2cc(Cl)cc3ncn(CCC[C@H]4NCCC[C@@H]4O)c23)cn1 [Example 113, (2R,3S)-2-(3-(7-(1-butyl-1H-pyrazol-4-yl)-5-chloro-1H-benzo[d]imidazol-1-yl)propyl)piperidin-3-ol]	6.30 to 7.00
O[C@H]1CCCN[C@@H]1/C=C/Cn1cnc2ccc(-c3cccc(C(F)(F)F)c3)cc21 [Example 192, (2R,3S)-2-((E)-3-(6-(3-(trifluoromethyl)phenyl)-1H-benzo[d]imidazol-1-yl)prop-1-enyl)piperidin-3-ol]	6.30 to 7.00

SMILES	pIC50
O[C@H]1CCCN[C@@H]1CCCn1cnc2c(Cl)c(Cl)cnc21 [Example 130, (2R,3S)-2-(3-(6,7-dichloro-3H-imidazo[4,5-b]pyridin-3-yl)propyl)piperidin-3-ol]	6.30 to 7.00
N#Cc1nc(-c2cc(Cl)cc3ncn(CCC[C@H]4NCCC[C@@H]4O)c23)cs1 [Example 105, 4-(5-chloro-1-(3-((2R,3S)-3-hydroxypiperidin-2-yl)propyl)-1H-benzo[d]imidazol-7-yl)thiazole-2-carbonitrile]	≤ 6.30
O[C@H]1CCCN[C@@H]1CCCn1cnc2nc(Cl)ncc21 [Example 135, (2R,3S)-2-(3-(2-chloro-7H-purin-7-yl)propyl)piperidin-3-ol]	≤ 6.30
O[C@H]1CCCN[C@@H]1CCCn1cnc2cc(F)c(F)cc21 [Example 52, (2R,3S)-2-(3-(5,6-difluoro-1H-benzo[d]imidazol-1-yl)propyl)piperidin-3-ol]	6.30 to 7.00
O[C@H]1CCCN[C@@H]1CCCn1cnc2cc(Cl)ncc21 [Example 123, (2R,3S)-2-(3-(6-chloro-3H-imidazo[4,5-c]pyridin-3-yl)propyl)piperidin-3-ol]	≤ 6.30
Cc1c(Cl)cnc2c1ncn2CCC[C@H]1NCCC[C@@H]1O [Example 131, (2R,3S)-2-(3-(6-chloro-7-methyl-3H-imidazo[4,5-b]pyridin-3-yl)propyl)piperidin-3-ol]	6.30 to 7.00
O[C@H]1CCCN[C@@H]1CCCn1cnc2cc(Cl)cc(-c3cccc(F)c3)c21 [Example 83, (2R,3S)-2-(3-(5-chloro-7-(3-fluorophenyl)-1H-benzo[d]imidazol-1-yl)propyl)piperidin-3-ol]	≥ 7.00
Cn1c(=O)n(CCC[C@H]2NCCC[C@@H]2O)c2ccccc21 [Example 159, 1-(3-((2R,3S)-3-hydroxypiperidin-2-yl)propyl)-3-methyl-1H-benzo[d]imidazol-2(3H)-one]	≤ 6.30
O[C@H]1CCCN[C@@H]1CCCn1cnc2ccc(C(F)(F)F)nc21 [Example 129, (2R,3S)-2-(3-(5-(trifluoromethyl)-3H-imidazo[4,5-b]pyridin-3-yl)propyl)piperidin-3-ol]	≤ 6.30
O[C@H]1CCCN[C@@H]1CCCn1cnc2cc(Cl)cc(-c3cncc(F)c3)c21 [Example 87, (2R,3S)-2-(3-(5-chloro-7-(5-fluoropyridin-3-yl)-1H-benzo[d]imidazol-1-yl)propyl)piperidin-3-ol]	6.30 to 7.00
O[C@H]1CCCN[C@@H]1/C=C/Cn1ncc2ccc(Cl)cc21 [Example 198, (2R,3S)-2-((E)-3-(6-chloro-1H-indazol-1-yl)prop-1-en-1-yl)piperidin-3-ol]	≤ 6.30
O[C@H]1CCCN[C@@H]1CCCn1cnc2cnc(Cl)nc21 [Example 136, (2R,3S)-2-(3-(2-chloro-9H-purin-9-yl)propyl)piperidin-3-ol]	≤ 6.30
C/C(=C\[C@H]1NCCC[C@@H]1O)Cn1cnc2cc(Cl)c(Cl)cc21 [Example 223, (2R,3S)-2-((E)-3-(5,6-dichloro-1H-benzo[d]imidazol-1-yl)-2-methylprop-1-en-1-yl)piperidin-3-ol]	≤ 6.30
O[C@H]1CCCN[C@@H]1CCCn1cnc2cccc(Cl)c21 [Example 12, (2R,3S)-2-(3-(7-chloro-1H-benzo[d]imidazol-1-yl)propyl)piperidin-3-ol]	6.30 to 7.00
O[C@H]1CCCN[C@@H]1CCCn1cnc2c(Br)cccc21 [Example 2, (2R,3S)-2-(3-(4-bromo-1H-benzo[d]imidazol-1-yl)propyl)piperidin-3-ol]	6.30 to 7.00
CC(C)n1cc(-c2cc(Cl)cc3ncn(CCC[C@H]4NCCC[C@@H]4O)c23)cn1 [Example 108, (2R,3S)-2-(3-(5-chloro-7-(1-isopropyl-1H-pyrazol-4-yl)-1H-benzo[d]imidazol-1-yl)propyl)piperidin-3-ol]	6.30 to 7.00
O[C@H]1CCCN[C@@H]1CCCn1cnc2ccc(Br)c(F)c21 [Example 48, (2R,3S)-2-(3-(6-bromo-7-fluoro-1H-benzo[d]imidazol-1-yl)propyl)piperidin-3-ol]	6.30 to 7.00
Cc1ccc2c(ncn2CCC[C@H]2NCCC[C@@H]2O)c1Cl [Example 44, (2R,3S)-2-(3-(4-chloro-5-methyl-1H-benzo[d]imidazol-1-yl)propyl)piperidin-3-ol]	6.30 to 7.00
O[C@@H]1CCCN[C@H]1CCCn1cnc2c(Cl)c(Cl)ccc21 [Example 42, (2S,3R)-2-(3-(4,5-dichloro-1H-benzo[d]imidazol-1-yl)propyl)piperidin-3-ol]	≤ 6.30
Cc1noc(C)c1-c1cc(Cl)cc2ncn(CCC[C@H]3NCCC[C@@H]3O)c12 [Example 93, (2R,3S)-2-(3-(5-chloro-7-(3,5-dimethylisoxazol-4-yl)-1H-benzo[d]imidazol-1-yl)propyl)piperidin-3-ol]	≤ 6.30
O=C(O)c1cn(C/C=C/[C@H]2NCCC[C@@H]2O)c2c(Br)cccc12 [Example 203, 7-bromo-1-((E)-3-((2R,3S)-3-hydroxypiperidin-2-yl)allyl)-1H-indole-3-carboxylic acid]	≤ 6.30
